{"source": "patent US20230295131A1", "about": "“INHIBITORS OF RHO-ASSOCIATED COILED-COIL KINASE” (Angion Biomedica Corp., priority 2020, published 2023)", "key": {"[1]": {"tested_on": "Hepatic stellate cells", "assay": "Gel contraction assay (TGFβ1-induced)", "type": "cell-based", "details": "test compound at 100 μM, 1 hour pretreatment, TGFβ1 24 hours", "protocol": "Hepatic stellate cells were plated onto collagen coated plates and pretreated with test compound (at 100 μM) for 1 hour. TGFβ1 is then added for 24 hours, and images are taken."}, "[2]": {"tested_on": "miRNAs in hepatic homogenates", "assay": "miRNA quantification in liver homogenates of the NASH model", "type": "in vivo, mice", "protocol": "(§1) 2. Pharmacodynamic and Efficacy Profile in Hepatic Diseases: • The activity of Ex. 65 was evaluated in a model of fast-food diet (FFD)+CCl4+sugar-induced NASH. Adult male mice were randomized to vehicle of 30 mg/kg test compound, IP, twice-daily for two weeks. Treatment with Ex. 65 reduced hepatic lipid accumulation (FIG. 3) and NAFLD activity score (NAS; FIG. 4).\nMicroRNAs (miRNAs) from liver homogenates from the study described above were quantified. Compared to healthy livers, 65 differentially expressed miRNAs from NASH livers were identified, of which 22 were corrected by treatment with Ex. 65 (see Table 6)."}, "[3]": {"tested_on": "CTGF in mouse embryonic fibroblasts (MEFs)", "assay": "TGFβ1-induced CTGF production assay", "type": "cell-based", "details": "1 hour pretreatment before TGFβ1, real time PCR", "protocol": "Mouse embryonic fibroblasts (MEFs) were isolated, starved overnight, then pretreated with Ex. 65 or Ex. 93 for 1 hour prior to addition of TGFβ1. RNA was isolated from cells and real time PCR was performed for CTGF."}, "[4]": {"assay": "Pharmacokinetic profile, compound levels in the vena cava", "type": "in vivo, C57BL/6 Mouse", "details": "po 10 mg/kg in 0.5% CMC suspension", "protocol": "(§2) For assessing compound levels in the vena cava, 10-11 week old male C57BL/6 animals were dosed orally with 10 mg/kg of Ex. 65 (mesylate salt) in 0.5% carboxymethyl cellulose (CMC) in water. Serum samples were collected from the portal vein at 15, 30, 60 120, 240, 360 and 480 minutes after dosing. Samples were analyzed for compound concentration by LC-MS."}, "[5]": {"molecular_target": "T1, ROCK1 (Homo sapiens, UniProt Q13464)", "T1 construct": "T7 phage fusion (kinase-tagged phage) or DNA tag for qPCR detection", "T1 sequence (Q13464 whole entry, the tested form may be a part)": "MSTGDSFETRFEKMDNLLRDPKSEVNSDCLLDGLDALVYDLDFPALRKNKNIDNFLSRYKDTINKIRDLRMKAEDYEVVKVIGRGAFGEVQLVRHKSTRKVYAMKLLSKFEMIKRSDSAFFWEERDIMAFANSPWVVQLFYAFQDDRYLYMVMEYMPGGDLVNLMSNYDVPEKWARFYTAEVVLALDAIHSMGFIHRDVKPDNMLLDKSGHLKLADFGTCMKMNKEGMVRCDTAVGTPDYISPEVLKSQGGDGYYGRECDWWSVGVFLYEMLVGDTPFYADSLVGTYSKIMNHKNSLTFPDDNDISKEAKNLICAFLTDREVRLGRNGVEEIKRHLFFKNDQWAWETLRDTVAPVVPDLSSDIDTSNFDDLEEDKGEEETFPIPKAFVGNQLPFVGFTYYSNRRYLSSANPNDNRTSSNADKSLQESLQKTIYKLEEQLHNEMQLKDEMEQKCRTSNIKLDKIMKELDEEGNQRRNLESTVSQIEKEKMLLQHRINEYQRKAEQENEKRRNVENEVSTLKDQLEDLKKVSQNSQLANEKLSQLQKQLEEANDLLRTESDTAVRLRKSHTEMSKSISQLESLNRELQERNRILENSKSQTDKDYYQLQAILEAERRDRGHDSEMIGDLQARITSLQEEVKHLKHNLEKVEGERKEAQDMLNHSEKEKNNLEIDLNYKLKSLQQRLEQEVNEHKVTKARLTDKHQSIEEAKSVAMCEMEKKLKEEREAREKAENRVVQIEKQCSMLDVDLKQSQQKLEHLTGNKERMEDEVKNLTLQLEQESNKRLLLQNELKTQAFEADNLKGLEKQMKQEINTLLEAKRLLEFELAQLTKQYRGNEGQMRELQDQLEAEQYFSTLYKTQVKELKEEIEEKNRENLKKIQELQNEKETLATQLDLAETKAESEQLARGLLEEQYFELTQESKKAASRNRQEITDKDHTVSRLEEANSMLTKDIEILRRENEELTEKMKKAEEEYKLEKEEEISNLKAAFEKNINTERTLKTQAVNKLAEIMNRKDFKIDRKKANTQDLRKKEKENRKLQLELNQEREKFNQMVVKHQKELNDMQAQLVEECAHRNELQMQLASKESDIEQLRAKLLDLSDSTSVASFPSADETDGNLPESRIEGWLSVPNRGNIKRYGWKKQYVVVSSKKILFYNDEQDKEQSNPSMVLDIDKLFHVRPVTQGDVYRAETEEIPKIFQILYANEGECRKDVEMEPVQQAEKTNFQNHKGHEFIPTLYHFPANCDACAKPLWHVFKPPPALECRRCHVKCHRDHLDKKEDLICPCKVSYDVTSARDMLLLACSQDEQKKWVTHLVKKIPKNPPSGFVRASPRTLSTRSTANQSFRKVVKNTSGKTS", "assay": "ROCK1 kinase binding affinity, DiscoverX KINOMEscan KdELECT", "details": "11-point 3-fold dilution", "summary_of_the_method": "(§3)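 Competition binding of DNA- or phage-tagged kinase to immobilised ligand beads, with bound kinase quantified by qPCR of eluates.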"}, "[6]": {"tested_on": "fast-food diet (FFD)+CCl4+sugar-induced NASH", "assay": "Fast-food diet (FFD)+CCl4+sugar-induced NASH model", "type": "in vivo, mice", "details": "30 mg/kg, IP, twice-daily for two weeks; for hepatic lipid accumulation (liver steatosis): FIG. 3; for NAFLD activity score (NAS): FIG. 4", "protocol": "as §1"}, "[7]": {"assay": "Pharmacokinetic profile, compound levels in the portal vein", "type": "in vivo, C57BL/6 Mouse", "protocol": "as §2, with “portal vein, 7-8” for “vena cava, 10-11”, “mg/kg compound” for “mg/kg”, “120” for “120, 240, 360”, “240” for “480”, “compound” for “compound concentration”"}, "[8]": {"molecular_target": "T2, ROCK2 (Homo sapiens, UniProt O75116)", "T2 construct": "T7 phage fusion (kinase-tagged phage) or DNA tag for qPCR detection", "T2 sequence (O75116 whole entry, the tested form may be a part)": "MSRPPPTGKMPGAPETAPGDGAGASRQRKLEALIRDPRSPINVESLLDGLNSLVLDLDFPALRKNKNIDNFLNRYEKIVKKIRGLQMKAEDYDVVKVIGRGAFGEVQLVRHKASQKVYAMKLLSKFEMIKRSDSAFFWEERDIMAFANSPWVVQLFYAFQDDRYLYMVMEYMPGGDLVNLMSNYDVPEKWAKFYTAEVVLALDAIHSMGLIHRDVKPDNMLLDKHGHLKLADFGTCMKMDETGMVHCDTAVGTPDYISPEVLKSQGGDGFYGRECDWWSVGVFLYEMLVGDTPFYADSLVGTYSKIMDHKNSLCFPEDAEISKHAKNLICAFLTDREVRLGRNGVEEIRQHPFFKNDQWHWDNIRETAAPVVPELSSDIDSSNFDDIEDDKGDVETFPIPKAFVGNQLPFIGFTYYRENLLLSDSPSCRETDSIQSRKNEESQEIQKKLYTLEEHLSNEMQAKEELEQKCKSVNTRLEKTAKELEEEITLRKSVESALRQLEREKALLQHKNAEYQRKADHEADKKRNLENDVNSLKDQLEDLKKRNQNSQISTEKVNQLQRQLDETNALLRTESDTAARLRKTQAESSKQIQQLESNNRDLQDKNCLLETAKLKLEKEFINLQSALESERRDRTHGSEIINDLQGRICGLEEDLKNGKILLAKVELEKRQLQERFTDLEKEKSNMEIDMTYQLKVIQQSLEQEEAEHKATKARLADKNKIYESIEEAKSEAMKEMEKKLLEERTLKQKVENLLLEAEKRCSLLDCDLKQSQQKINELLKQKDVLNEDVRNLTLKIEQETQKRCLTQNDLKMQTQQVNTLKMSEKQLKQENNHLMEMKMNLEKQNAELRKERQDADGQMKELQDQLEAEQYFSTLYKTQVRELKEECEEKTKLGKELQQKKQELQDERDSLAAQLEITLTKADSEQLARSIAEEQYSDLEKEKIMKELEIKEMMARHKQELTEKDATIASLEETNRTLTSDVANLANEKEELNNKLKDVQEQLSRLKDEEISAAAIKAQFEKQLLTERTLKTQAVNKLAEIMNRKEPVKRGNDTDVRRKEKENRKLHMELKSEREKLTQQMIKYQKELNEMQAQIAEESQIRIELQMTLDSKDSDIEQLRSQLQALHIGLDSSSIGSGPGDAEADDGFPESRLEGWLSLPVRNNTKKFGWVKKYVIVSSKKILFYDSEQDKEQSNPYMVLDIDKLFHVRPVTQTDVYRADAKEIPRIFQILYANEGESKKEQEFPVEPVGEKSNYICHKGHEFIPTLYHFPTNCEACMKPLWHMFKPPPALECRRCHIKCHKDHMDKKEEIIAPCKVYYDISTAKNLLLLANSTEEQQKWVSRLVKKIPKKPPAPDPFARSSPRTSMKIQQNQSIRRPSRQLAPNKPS", "assay": "ROCK2 kinase binding affinity, DiscoverX KINOMEscan KdELECT", "summary_of_the_method": "as §3"}, "[9]": {"details": "30 mg/kg IP twice-daily two weeks"}, "[10]": {"details": "male, C57BL/6, mouse, vena cava serum, mesylate salt, serum"}, "[11]": {"details": "male, C57BL/6, mouse, portal vein serum, po 10 mg/kg in 0.5% CMC suspension, mesylate salt, serum"}}}
{"smiles": "O[C@H]1CC[C@@H](Nc2nccc(-c3nccc(C#Cc4ccc5[nH]ncc5c4)n3)n2)CC1", "note": "[Ex. 65, (1s,4s)-4-((4-((1H-Indazol-5-yl)ethynyl)-[2,4′-bipyrimidin]-2′-yl)amino)cyclohexanol]", "values": [{"measurement": "TGFβ1-induced gel contraction in hepatic stellate cells", "setting": "[1]", "result": "significantly attenuated"}, {"measurement": "hepatic levels of oncomiR-181a", "setting": "[2]; [9]", "result": "reduced"}, {"measurement": "hepatic levels of oncomiR-425", "setting": "[2]; [9]", "result": "reduced"}, {"measurement": "Mean (disease + Ex. 65) mmu-miR-5123", "setting": "[2]; hepatic homogenates, mean control 3.22, disease 1.53", "result": 3.54}, {"measurement": "Mean (disease + Ex. 65) mmu-miR-871-3p", "setting": "[2]; hepatic homogenates, mean control 4.08, disease 1.53", "result": 7.98}, {"measurement": "Mean (disease + Ex. 65) mmu-miR-7115-5p", "setting": "[2]; hepatic homogenates, mean control 4.31, disease 8.54", "result": 2.41}, {"measurement": "Mean (disease + Ex. 65) mmu-let-7k", "setting": "[2]; hepatic homogenates, mean control 9.04, disease 13.85", "result": 7.72}, {"measurement": "Mean (disease + Ex. 65) mmu-miR-93-3p", "setting": "[2]; hepatic homogenates, mean control 39.45, disease 76.50", "result": 46.52}, {"measurement": "Mean (disease + Ex. 65) mmu-miR-542-5p", "setting": "[2]; hepatic homogenates, mean control 66.04, disease 74.42", "result": 39.03}, {"measurement": "Mean (disease + Ex. 65) mmu-miR-27a-5p", "setting": "[2]; hepatic homogenates, mean control 71.79, disease 98.65", "result": 53.13}, {"measurement": "Mean (disease + Ex. 65) mmu-miR-106a-5p", "setting": "[2]; hepatic homogenates, mean control 115.29, disease 149.51", "result": 114.11}, {"measurement": "Mean (disease + Ex. 65) mmu-miR-125a-3p", "setting": "[2]; hepatic homogenates, mean control 245.12, disease 297.02", "result": 182.06}, {"measurement": "Mean (disease + Ex. 65) mmu-miR-501-3p", "setting": "[2]; hepatic homogenates, mean control 364.92, disease 489.94", "result": 296.78}, {"measurement": "Mean (disease + Ex. 65) mmu-miR-339-3p", "setting": "[2]; hepatic homogenates, mean control 427.46, disease 502.07", "result": 426.25}, {"measurement": "Mean (disease + Ex. 65) mmu-miR-802-5p", "setting": "[2]; hepatic homogenates, mean control 1094.11, disease 614.54", "result": 899.47}, {"measurement": "Mean (disease + Ex. 65) mmu-miR-322-3p", "setting": "[2]; hepatic homogenates, mean control 1115.59, disease 1416.47", "result": 949.59}, {"measurement": "Mean (disease + Ex. 65) mmu-miR-17-3p", "setting": "[2]; hepatic homogenates, mean control 1200.81, disease 1454.34", "result": 1161.55}, {"measurement": "Mean (disease + Ex. 65) mmu-miR-351-5p", "setting": "[2]; hepatic homogenates, mean control 1248.83, disease 1603.84", "result": 889.81}, {"measurement": "Mean (disease + Ex. 65) mmu-miR-99b-5p", "setting": "[2]; hepatic homogenates, mean control 1421.33, disease 1933.41", "result": 1099.61}, {"measurement": "Mean (disease + Ex. 65) mmu-miR-425-5p", "setting": "[2]; hepatic homogenates, mean control 1716.15, disease 2037.69", "result": 1524.04}, {"measurement": "Mean (disease + Ex. 65) mmu-miR-181a-5p", "setting": "[2]; hepatic homogenates, mean control 3789.12, disease 5124.26", "result": 2941.29}, {"measurement": "Mean (disease + Ex. 65) mmu-miR-320-3p", "setting": "[2]; hepatic homogenates, mean control 4080.44, disease 5204.90", "result": 3896.99}, {"measurement": "Mean (disease + Ex. 65) mmu-miR-93-5p", "setting": "[2]; hepatic homogenates, mean control 36188.01, disease 41626.66", "result": 31184.61}, {"measurement": "Mean (disease + Ex. 65) mmu-miR-143-3p", "setting": "[2]; hepatic homogenates, mean control 67983.70, disease 80209.00", "result": 58204.03}, {"measurement": "Mean (disease + Ex. 65) mmu-miR-191-5p", "setting": "[2]; hepatic homogenates, mean control 118228.91, disease 141957.68", "result": 119365.71}, {"measurement": "number of differentially expressed miRNAs of NASH livers corrected by treatment", "setting": "[2]; of 65 differentially expressed miRNAs, 30 mg/kg IP twice-daily two weeks", "result": 22}, {"measurement": "CTGF production in embryonic fibroblasts", "setting": "[3]", "result": "attenuated"}, {"measurement": "AUC", "setting": "[4]; [10]", "result": 145, "unit": "ng·h/mL"}, {"measurement": "Cmax", "setting": "[4]; [10]", "result": 258, "unit": "nM"}, {"measurement": "Cmax as multiple of Kd, in vena cava", "setting": "[4]", "result": "318*Kd"}, {"measurement": "F % in vena cava", "setting": "[4]; mesylate salt", "result": 4.6, "unit": "%"}, {"measurement": "Kd", "setting": "[5]", "result": "0.1 to 0.99", "unit": "µM"}, {"measurement": "hepatic lipid accumulation (liver steatosis)", "setting": "[6]", "result": "reduced"}, {"measurement": "hepatic lipid accumulation (liver steatosis)", "setting": "[6]; listed as compound 65", "result": "reduction"}, {"measurement": "NAFLD activity score (NAS)", "setting": "[6]", "result": "reduced"}, {"measurement": "NAFLD activity score (NAS)", "setting": "[6]; listed as compound 65", "result": "reduction"}, {"measurement": "AUC", "setting": "[7]; [11]", "result": 697, "unit": "ng·h/mL"}, {"measurement": "Cmax", "setting": "[7]; [11]", "result": 1540, "unit": "nM"}, {"measurement": "oral bioavailability and liver entry", "setting": "[7]; mice, po, portal vein versus vena cava", "result": "preferential liver entry"}, {"measurement": "Cmax as multiple of Kd, in portal vein", "setting": "[7]; po 10 mg/kg in 0.5% CMC suspension", "result": "1904*Kd"}, {"measurement": "F % in portal vein", "setting": "[7]; po 10 mg/kg in 0.5% CMC suspension, mesylate salt", "result": 22, "unit": "%"}, {"measurement": "Kd", "setting": "[8]; KINOMEscan KdELECT, 11-point 3-fold dilution, read-out: Kd (μM) ROCK2", "result": "< 0.01", "unit": "µM"}, {"measurement": "ROCK2 Selectivity", "setting": "[8]; selectivity for ROCK2 over ROCK1 from Kd", "result": "**** (>500-fold selectivity for ROCK2)"}]}
